The values below come from publication PMC9132982, “Inhibitory role of proguanil on the growth of bladder cancer via enhancing EGFR degradation and inhibiting its downstream signaling pathway to induce autophagy” (Cell Death & Disease, 2022).

In the experiment the target is epidermal growth factor receptor (EGFR) (Homo sapiens, UniProt P00533). Nature of the experiment: SPRi with photo-crosslinked immobilized proguanil capturing proteins from T24 cell lysate, identified by LC-MS; no Kd. The class given is cell-based.

SMILES strings stand for the structures.

epidermal growth factor receptor (EGFR), sequence (P00533 25-1210): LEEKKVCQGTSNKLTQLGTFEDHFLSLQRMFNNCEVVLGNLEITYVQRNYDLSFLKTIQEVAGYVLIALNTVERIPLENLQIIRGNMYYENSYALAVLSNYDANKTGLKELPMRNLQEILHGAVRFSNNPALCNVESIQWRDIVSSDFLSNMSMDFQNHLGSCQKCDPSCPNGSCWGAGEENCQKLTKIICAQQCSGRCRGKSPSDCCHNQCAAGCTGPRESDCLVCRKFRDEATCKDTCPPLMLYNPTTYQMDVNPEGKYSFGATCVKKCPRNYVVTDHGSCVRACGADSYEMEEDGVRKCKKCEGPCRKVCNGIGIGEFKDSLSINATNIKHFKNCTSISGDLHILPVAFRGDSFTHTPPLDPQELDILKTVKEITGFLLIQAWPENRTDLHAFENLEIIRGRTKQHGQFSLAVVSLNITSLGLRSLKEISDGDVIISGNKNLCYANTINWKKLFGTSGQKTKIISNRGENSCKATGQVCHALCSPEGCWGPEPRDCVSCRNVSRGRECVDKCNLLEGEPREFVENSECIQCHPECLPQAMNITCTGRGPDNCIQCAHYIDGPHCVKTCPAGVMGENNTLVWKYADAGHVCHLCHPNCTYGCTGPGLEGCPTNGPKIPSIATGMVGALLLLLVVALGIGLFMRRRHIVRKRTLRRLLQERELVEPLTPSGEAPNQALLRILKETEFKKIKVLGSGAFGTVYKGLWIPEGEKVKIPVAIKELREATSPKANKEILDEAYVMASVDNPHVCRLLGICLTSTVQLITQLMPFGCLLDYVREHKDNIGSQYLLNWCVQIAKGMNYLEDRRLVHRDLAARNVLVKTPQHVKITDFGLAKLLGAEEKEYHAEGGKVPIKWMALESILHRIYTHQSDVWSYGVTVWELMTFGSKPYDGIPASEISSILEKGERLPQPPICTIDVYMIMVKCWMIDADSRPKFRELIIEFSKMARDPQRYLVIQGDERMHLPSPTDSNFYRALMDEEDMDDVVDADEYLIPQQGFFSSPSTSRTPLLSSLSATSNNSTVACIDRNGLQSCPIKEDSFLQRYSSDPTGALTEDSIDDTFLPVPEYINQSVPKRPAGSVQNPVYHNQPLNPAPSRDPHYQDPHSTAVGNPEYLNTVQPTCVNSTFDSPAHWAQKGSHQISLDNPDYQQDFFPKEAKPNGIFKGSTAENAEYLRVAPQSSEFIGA

In the case of `[H]/N=C(\N/C(=N/[H])Nc1ccc(Cl)cc1)NC(C)C` [proguanil], the “SPRi with photo-crosslinked immobilized proguanil capturing proteins from T24 ce” value is “surface plasmon resonance imaging (SPRi) experiments and found that proguanil strongly binds to EGFR (Fig. 1A)”.
